From BindingDB's records for patent US20240277683 (Ctxt, 2024) come the findings set out here.

In test [1] the target is Histone acetyltransferase KAT7 (Homo sapiens, UniProt O95251). The experiment in a line: Acetyltransferase Biochemical Assay. As to the method:
(§1) The reactions were performed in assay buffer (100 mM Tris-HCl, pH7.8, 15 mM NaCl, 1 mM EDTA, 0.01% Tween-20, 1 mM Dithiothreitol and 0.01% m/v chicken egg white albumin). […] 11-point dilution series of the test compounds were prepared in DMSO; a volume of 100 nL was transferred using a pin tool into assay plates containing substrates, […] control reactions were included on the same plates and received the same amount of DMSO as the compound treated wells. After adding all reagents, the plates were sealed with adhesive seals and incubated for 90 min at room temperature. An additional 4 uL of assay buffer containing AlphaScreen Protein A acceptor beads […] was then added.

Test [2] deals with Histone acetyltransferase KAT5 (Homo sapiens, UniProt Q92993). The experiment in a line: Acetyltransferase Biochemical Assay. The protocol:
as §1

Where only a bound is given, the exact number is not on record here.

Chain of Histone acetyltransferase KAT5 (Q92993 whole entry): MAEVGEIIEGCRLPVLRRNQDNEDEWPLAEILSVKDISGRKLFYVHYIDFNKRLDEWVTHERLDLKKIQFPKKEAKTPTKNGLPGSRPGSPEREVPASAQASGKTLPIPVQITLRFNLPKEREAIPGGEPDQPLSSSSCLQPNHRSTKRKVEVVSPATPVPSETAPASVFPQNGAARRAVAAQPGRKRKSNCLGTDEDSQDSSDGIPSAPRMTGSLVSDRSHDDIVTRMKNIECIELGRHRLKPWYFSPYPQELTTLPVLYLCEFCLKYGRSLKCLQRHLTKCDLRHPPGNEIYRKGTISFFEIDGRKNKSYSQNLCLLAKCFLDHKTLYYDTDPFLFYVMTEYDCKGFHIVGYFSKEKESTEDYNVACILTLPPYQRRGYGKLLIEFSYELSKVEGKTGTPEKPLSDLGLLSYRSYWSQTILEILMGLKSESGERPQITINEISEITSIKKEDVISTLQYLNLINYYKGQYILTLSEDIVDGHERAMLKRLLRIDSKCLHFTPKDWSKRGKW
Chain of Histone acetyltransferase KAT7 (O95251 whole entry): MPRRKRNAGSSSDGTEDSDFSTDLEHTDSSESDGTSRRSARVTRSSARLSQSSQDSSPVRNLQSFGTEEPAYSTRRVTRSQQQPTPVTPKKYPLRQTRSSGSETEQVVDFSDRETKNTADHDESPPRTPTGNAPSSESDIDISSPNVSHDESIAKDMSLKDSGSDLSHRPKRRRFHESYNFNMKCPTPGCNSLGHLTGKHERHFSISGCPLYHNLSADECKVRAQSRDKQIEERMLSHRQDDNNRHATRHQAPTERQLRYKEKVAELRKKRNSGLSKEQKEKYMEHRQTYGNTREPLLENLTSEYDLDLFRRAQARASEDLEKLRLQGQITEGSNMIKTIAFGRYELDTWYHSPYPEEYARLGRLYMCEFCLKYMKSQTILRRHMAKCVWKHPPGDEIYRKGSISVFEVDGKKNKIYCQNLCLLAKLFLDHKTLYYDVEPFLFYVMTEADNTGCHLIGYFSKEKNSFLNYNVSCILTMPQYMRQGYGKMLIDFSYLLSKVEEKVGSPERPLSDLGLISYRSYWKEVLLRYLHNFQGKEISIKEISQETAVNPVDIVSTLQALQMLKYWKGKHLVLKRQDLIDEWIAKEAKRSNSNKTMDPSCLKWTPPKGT

Take `O=S(=O)(Nc1cc(-c2ccccc2)on1)C1CC1` [US20240277683, Example 29]: the 50% inhibitory concentration (IC50) in test [1] and in test [2] was greater than 125 µM throughout.

As to `O=S(=O)(Nc1cc(-c2ccccc2)on1)c1ccc2c(c1)CCCC2` [US20240277683, Example 76], the IC50 (in general, the concentration needed to halve the response being measured) in test [2] was greater than 125 µM.

In turn, `COc1ccccc1-c1nnc(NS(=O)(=O)C2CCNCC2)s1` [US20240277683, Example 129] yielded an IC50 in test [2] greater than 125 µM.
